ChEMBL document CHEMBL1201862, “PubChem BioAssay data set” (2004)
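Protocol summary: plate cells (96-well), add compound at 5 concentrations, incubate 48 h, interpolate endpoints linearly. GI50 marks 50% less growth.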 Activity calls are given as the source filed them. Rule as the data show it: active = GI50 up to about 1.1 µM and inactive = higher.

Key:
Assay in all cases: inhibition of tumour cell growth, NCI panel, 48 h
[1] = system: ACHN
[2] = system: DU-145
[3] = system: EKVX
[4] = system: HCC 2998
[5] = system: Hs-578T
[6] = system: IGROV-1
[7] = system: MDA-MB-435
[8] = system: MDA-N
[9] = system: MOLT-4
[10] = system: Malme-3M
[11] = system: NCI/ADR-RES
[12] = system: OVCAR-3
[13] = system: RXF 393
[14] = system: SK-MEL-2
[15] = system: UO-31
[16] = system: SK-OV-3

| Structure (SMILES) | GI50 [1] | GI50 [2] | GI50 [3] | GI50 [4] | GI50 [5] | GI50 [6] | GI50 [7] | GI50 [8] | GI50 [9] | GI50 [10] | GI50 [11] | GI50 [12] | GI50 [13] | GI50 [14] | GI50 [15] | GI50 [16] |
| --- | --- | --- | --- | --- | --- | --- | --- | --- | --- | --- | --- | --- | --- | --- | --- | --- |
| CCOC(=O)c1ccc(C(=O)n2ccnc2)[nH]1 | > 100 µM (inactive) | > 100 µM (inactive) | > 100 µM (inactive) | > 100 µM (inactive) | > 100 µM (inactive) | > 100 µM (inactive) | > 100 µM (inactive) | > 100 µM (inactive) | > 100 µM (inactive) | > 100 µM (inactive) | > 100 µM (inactive) | > 100 µM (inactive) | 85.7 µM (inactive) | > 100 µM (inactive) | > 100 µM (inactive) | – |
| C=C1CC(C)(COc2ccc3c(C)c(C)c(=O)oc3c2C)OC1=O (stereo not given) | 2.33 µM (inactive) | 2.51 µM (inactive) | 5.52 µM (inactive) | 1.76 µM (inactive) | 1.9 µM (inactive) | 1.63 µM (inactive) | 2.7 µM (inactive) | 1.77 µM (inactive) | 1.08 µM (active) | 1.39 µM (inactive) | 2.46 µM (inactive) | 3.3 µM (inactive) | – | 2.01 µM (inactive) | 9.18 µM (inactive) | 3.05 µM (inactive) |
| C/C(NC(=O)c1ccccc1)=C(/C(=O)c1ccccc1)[C@@H]1OC(C)(C)O[C@@H]1[C@H]1COC(C)(C)O1 | 67.3 µM (inactive) | 44.7 µM (inactive) | 16.4 µM (inactive) | 23.9 µM (inactive) | 27 µM (inactive) | 13.2 µM (inactive) | 19.5 µM (inactive) | 18.6 µM (inactive) | 15.5 µM (inactive) | 37.6 µM (inactive) | 27.7 µM (inactive) | 32.9 µM (inactive) | 30.2 µM (inactive) | 23.3 µM (inactive) | 15.5 µM (inactive) | – |
| N#Cc1sc2c(c1OC(=O)c1ccc(Cl)cc1)c(=O)n(-c1ccccc1)c(=S)n2-c1ccccc1 | 28.4 µM (inactive) | 25.8 µM (inactive) | 21 µM (inactive) | 21.5 µM (inactive) | 15.6 µM (inactive) | 16.7 µM (inactive) | 20.6 µM (inactive) | 20.3 µM (inactive) | 42.3 µM (inactive) | 20.4 µM (inactive) | 23.3 µM (inactive) | 17.1 µM (inactive) | 19.7 µM (inactive) | – | – | 29.9 µM (inactive) |
| O=C1C(Cl)=C(N2CCSCC2)C(=O)c2c(O)ccc(O)c21 | 0.424 µM (active) | 0.802 µM (active) | – | – | 0.501 µM (active) | 0.776 µM (active) | 0.631 µM (active) | 0.33 µM (active) | 0.641 µM (active) | 0.382 µM (active) | 0.1 µM (active) | – | 0.243 µM (active) | 0.204 µM (active) | 0.569 µM (active) | 0.581 µM (active) |
| C(=C\Nc1ccc(Oc2ccccc2)cc1)/C=N/c1ccc(Oc2ccccc2)cc1 | 19.6 µM (inactive) | 20.1 µM (inactive) | 18.4 µM (inactive) | 15.9 µM (inactive) | 19.9 µM (inactive) | 17.1 µM (inactive) | 17.4 µM (inactive) | 16.2 µM (inactive) | > 10 µM (inactive) | 17.1 µM (inactive) | 16.9 µM (inactive) | 19 µM (inactive) | 20 µM (inactive) | – | 18.4 µM (inactive) | – |
| CCCOC1OC(CS(=O)(=O)O)C(O)C(O)C1O (stereo not given) | – | > 100 µM (inactive) | – | > 100 µM (inactive) | > 100 µM (inactive) | > 100 µM (inactive) | > 100 µM (inactive) | > 100 µM (inactive) | > 100 µM (inactive) | > 100 µM (inactive) | > 100 µM (inactive) | > 100 µM (inactive) | > 100 µM (inactive) | > 100 µM (inactive) | > 100 µM (inactive) | > 100 µM (inactive) |
